Test [1] has as its system RPE1 cells. Description: Cytotoxicity MTS assay. The class given is cell-based, human. To be noted: Homo sapiens, RPE-1, 48 h, read-out: IC50 RPE1. On the procedure:
(§1) The cytotoxic potential of the selected drug candidates was evaluated using the CellTiter 96® AQueous One Solution Cell Proliferation Assay (Promega, Madison, WI, USA), following the manufacturer’s protocol. Human cell lines RPE1 and HEK293 were cultured at 37 °C in a humidified incubator with 5% CO2. Test compounds were dissolved in the appropriate growth medium and serially diluted across a range of concentrations in 96-well microtiter plates. Each well was seeded with 5000 cells and incubated for 48 h under standard culture conditions. Following this incubation period, 20 µL of MTS reagent was added to each well, and the plates were further incubated for 3 h to allow for color development. Absorbance was measured at 490 nm using a microplate reader to determine cell viability. Cytotoxicity was quantified as the half-maximal inhibitory concentration (IC50), defined as the concentration of compound that reduced cell viability by 50%. […] IC50 values were calculated using GraFit 6.0 software by plotting compound concentration against absorbance and fitting the data to a sigmoidal dose–response curve.

Test [2] relates to HEK293 cells. Description: Cytotoxicity MTS assay. The class given is cell-based, human. To be noted: Homo sapiens, HEK293, 48 h, read-out: IC50 HEK293. The procedure:
as §1

Test [3] concerns Listeria monocytogenes ATCC 7644. The test is described as follows: Broth microdilution MIC. The class given is cell-based. To be noted: for MIC: Listeria monocytogenes, ATCC7644, read-out: Minimum Inhibitory Concentrations (MIC), Listeria monocytogenes ATCC 7644.
The test system of test [4] is Pseudomonas aeruginosa ATCC 27853. The test is described as follows: Broth microdilution MIC. The class given is cell-based. To be noted: for MIC: Pseudomonas aeruginosa, ATCC27853, read-out: Minimum Inhibitory Concentrations (MIC).
The test system of test [5] is Listeria monocytogenes ATCC 7644. The test is described as follows: Biofilm inhibition assay (crystal violet). The class given is cell-based. To be noted: Listeria monocytogenes, ATCC7644, read-out: biofilm inhibition. On the procedure: (§2) The ability of the candidate compounds to inhibit biofilm formation was evaluated by determining the minimum biofilm inhibitory concentration (MBIC) against the biofilm-forming strains Staphylococcus aureus ATCC 25923 and Listeria monocytogenes ATCC 7644. Overnight bacterial cultures were diluted in fresh, pre-warmed Mueller–Hinton broth (MHB) and incubated at 37 °C with constant shaking at 220 rpm. Once the cultures reached the exponential growth phase (OD600 = 0.3–0.5), they were standardized to a final concentration of 4 × 10^6 CFU/mL.
(§3) Aliquots (50 µL) of the standardized bacterial suspension were inoculated into 96-well microtiter plates containing the test compounds at final concentrations of 100, 50, 25, and 12.5 µg/mL. Plates were incubated at 37 °C for 24 to 48 h, depending on the bacterial strain. After incubation, the planktonic cells were carefully aspirated to preserve the integrity of the biofilm layer. Wells were gently rinsed with sterile ultrapure Milli-Q water and air-dried at 60 °C for 1 h to fix the biofilms. Biofilm formation was quantified using a crystal violet (CV) staining method. Wells were stained with 100 µL of 0.1% CV solution and incubated at room temperature for 1 h. Excess dye was removed by rinsing with sterile ultrapure Milli-Q water, followed by air-drying. Bound CV was solubilized with 100 µL of 70% ethanol and incubated for 30 min. The solubilized dye was transferred to a fresh plate, and absorbance was measured at 595 nm using a microplate reader (Bio-Tek EL808, Winooski, VT, USA). Absorbance values were directly proportional to biofilm biomass. Untreated bacterial cultures served as positive controls for biofilm formation, while sterile MHB served as the negative control.

Test [6] concerns Staphylococcus aureus ATCC 33591 (methicillin-resistant). Description: Broth microdilution MIC. The class given is cell-based. To be noted: Staphylococcus aureus, ATCC33591, read-out: Minimum Inhibitory Concentrations (MIC).
In test [7] the test system is Staphylococcus aureus Clinical/MRSA. Description: Broth microdilution MIC. The class given is cell-based. To be noted: Staphylococcus aureus, MRSA, read-out: Minimum Inhibitory Concentrations (MIC).
The subject of test [8] is Staphylococcus aureus ATCC 25923. Description: Broth microdilution MIC. The class given is cell-based. To be noted: for MIC: Staphylococcus aureus, ATCC25923, read-out: Minimum Inhibitory Concentrations (MIC).
The subject of test [9] is Listeria monocytogenes ATCC 7644. The test is described as follows: Time-resolved growth kinetics. The class given is cell-based. To be noted: MIC and ½ MIC. The procedure:
The antimicrobial activity of the candidate compounds against Staphylococcus aureus ATCC 25923 and Listeria monocytogenes ATCC 7644 was further evaluated using a time-resolved growth kinetics assay in 96-well microtiter plates. Overnight bacterial cultures were diluted in fresh, pre-warmed Mueller–Hinton broth (MHB) and incubated at 37 °C with orbital shaking at 220 rpm. Upon reaching the exponential growth phase (OD600 = 0.3–0.5), cultures were standardized to a final concentration of 5 × 10^4 CFU/mL. Aliquots (50 µL) of the standardized inoculum were dispensed into wells containing either no antimicrobial agent (negative control) or the test compounds at concentrations corresponding to ½ MIC and MIC. Bacterial growth was continuously monitored over a 24 h period by measuring absorbance at 595 nm every 10 min using a Bio-Tek EL808 microplate reader (Winooski, VT, USA). Growth kinetics were assessed by comparing the optical density profiles of treated samples against the untreated control. Each experiment was performed independently twice, with all conditions tested in triplicate. Data are presented as the mean values of these replicates.

Test [10] deals with Salmonella enterica (food isolate). The test is described as follows: Broth microdilution MIC. The class given is cell-based. To be noted: read-out: Minimum Inhibitory Concentrations (MIC).
The subject of test [11] is Staphylococcus aureus ATCC 25923. The test is described as follows: Biofilm inhibition assay (crystal violet). The class given is cell-based. On the procedure: as §2
as §3, with “Plates” for “Aliquots (50 µL) of the standardized bacterial suspension were inoculated into 96-well microtiter plates containing the test compounds at final concentrations of 100, 50, 25, and 12.5 µg/mL. Plates”

Test [12] concerns Escherichia coli ATCC 25922. Description: Broth microdilution MIC. To be noted: Escherichia coli, ATCC25922, read-out: Minimum Inhibitory Concentrations (MIC). The class given is cell-based.
[13] abbreviates: S. aureus ATCC 25923, 6.25 µg/mL.
Where [14] appears, read: S. aureus ATCC 25923, 12.5 µg/mL.
[15] abbreviates: S. aureus ATCC 25923, 100 µg/mL.

Molecules are shown by their SMILES. pIC50: −log10 of the molar value. Where only a bound is given, the exact number is not on record here.

These results are taken from publication PMC12473123, “Structure–Function Insights into Quinuclidine-3-One BisQACs: Synthesis, Modulation of Bacterial Resistance, Structure–Activity Relationship, and Biological Profiling” (Pharmaceuticals, 2025).

As to `CCCCCCCCCCCCCCCCNC1C[N+]2(CCC[N+]34CCC(CC3)C(NCCCCCCCCCCCCCCCC)C4)CCC1CC2` (racemic) [2(QC16)3, (±)-1,1′-(Propane-1,3-diyl) bis(3-(hexadecylamino)quinuclidinium) dibromide], the pIC50 in test [1] was 4.16; in [2], 4.68. Besides, the MIC was 9 µM in test [3]; above 75 µM in test [4]; 19 µM in test [6]; above 75 µM in test [7]; 38 µM in test [8]; above 75 µM in test [10]. The MIC in [12] was above 75 µM. Besides, the inhibition at 6.25 µg/mL in test [5] came to 91%. Further, in test [5], the inhibition at 12.5 µg/mL was determined as 93%. For the same compound, in [5], the inhibition at 25 µg/mL came to 94%. Moreover, the inhibition at 50 µg/mL in test [5] amounted to 94%. In [5], the inhibition at 100 µg/mL stood at 97%. In test [9], the “effect on bacterial growth” value is “pronounced inhibitory effect”. In addition, the biofilm inhibition in test [11] (setting [13]) was above 2%; in test [11] (setting [14]) it was 11%; in test [11] (S. aureus ATCC 25923, 25 µg/mL), above 80%; in test [11] (S. aureus ATCC 25923, 50 µg/mL), “exceeding 90%”; in [11] (setting [15]), “exceeding 90%”.

Regarding `CCCCCCCCCCCCCCCCNC1C[N+]2(CCCCCC[N+]34CCC(CC3)C(NCCCCCCCCCCCCCCCC)C4)CCC1CC2` (racemic) [2(QC16)6, (±)-1,1′-(Hexane-1,6-diyl) bis(3-(hexadecylamino)quinuclidinium) dibromide], the pIC50 in test [1] was 5.30; in test [2] it was 5.15. The “Minimum Inhibitory Concentrations (MIC)” value was 19 µM in test [3] (Listeria monocytogenes ATCC 7644), “largely inactive” in test [4] (Pseudomonas aeruginosa ATCC 27853) and 9 µM in test [8] (Staphylococcus aureus ATCC 25923). Moreover, the MIC is 38 µM in test [3]; above 75 µM in test [4]; 5 µM in test [6]; 38 µM in test [7]; 9 µM in test [8]; 75 µM in [10]. In addition, in [12], the MIC was 19 µM. Moreover, in test [5], the inhibition at 6.25 µg/mL was found to be 40%. Further, the inhibition at 12.5 µg/mL in test [5] came out at 69%. Moreover, the inhibition at 25 µg/mL in test [5] turned out to be 81%. Besides, the inhibition at 50 µg/mL in test [5] turned out to be 88%. In test [5], the inhibition at 100 µg/mL amounted to 89%. The “effect on bacterial growth” value in test [9] was “pronounced inhibitory effect”. The biofilm inhibition in test [11] (setting [13]) was 6%; in [11] (setting [14]), above 30%; in test [11] (S. aureus ATCC 25923, 25 µg/mL), above 80%; in test [11] (S. aureus ATCC 25923, 50 µg/mL) it was above 90%; in test [11] (setting [15]), 95%.
